Format in all cases: biochemical
The target in assay [1] is T1, reuptake of serotonine (5-HT) in synaptosomes (Rattus norvegicus, UniProt P31652).
T1 construct: in synaptosomes as described in WO 97/16451; from tissue
Description: Inhibition of 5-HT reuptake in synaptosomes. Conditions: 3H-5-HT, read-out: 5-HT-uptake IC50. As to the method:
(§1) A number of compounds were tested for their ability to inhibit the reuptake of the monoamine neurotransmitters dopamine (DA), noradrenaline (NA) and serotonine (5-HT) in synaptosomes as described in WO 97/16451.
(§2) The test values are given as IC50 (the concentration (μM) of the test substance which inhibits the specific binding of ^3H-DA, ^3H-NA, or ^3H-5-HT by 50%).

For assay [2], the target named is T2, reuptake of dopamine (DA) in synaptosomes (Rattus norvegicus, UniProt P23977).
T2 construct: in synaptosomes as described in WO 97/16451; from tissue
The experiment in a line: Inhibition of DA reuptake in synaptosomes. As to conditions: 3H-DA, read-out: DA-uptake IC50. As to the method: as §1, §2

Assay [3] addresses T3, reuptake of noradrenaline (NA) in synaptosomes (Rattus norvegicus, UniProt Q63380).
T3 construct: in synaptosomes as described in WO 97/16451; from tissue
Description: Inhibition of NA reuptake in synaptosomes. Conditions: 3H-NA, read-out: NA-uptake IC50. Here is the method:
as §1, §2

Structures are written as SMILES. Where a name gives a salt, the structure may show the parent alone.

As a reminder, the IC50 is the concentration that gives 50% inhibition.

T3 sequence (Q63380 1-617): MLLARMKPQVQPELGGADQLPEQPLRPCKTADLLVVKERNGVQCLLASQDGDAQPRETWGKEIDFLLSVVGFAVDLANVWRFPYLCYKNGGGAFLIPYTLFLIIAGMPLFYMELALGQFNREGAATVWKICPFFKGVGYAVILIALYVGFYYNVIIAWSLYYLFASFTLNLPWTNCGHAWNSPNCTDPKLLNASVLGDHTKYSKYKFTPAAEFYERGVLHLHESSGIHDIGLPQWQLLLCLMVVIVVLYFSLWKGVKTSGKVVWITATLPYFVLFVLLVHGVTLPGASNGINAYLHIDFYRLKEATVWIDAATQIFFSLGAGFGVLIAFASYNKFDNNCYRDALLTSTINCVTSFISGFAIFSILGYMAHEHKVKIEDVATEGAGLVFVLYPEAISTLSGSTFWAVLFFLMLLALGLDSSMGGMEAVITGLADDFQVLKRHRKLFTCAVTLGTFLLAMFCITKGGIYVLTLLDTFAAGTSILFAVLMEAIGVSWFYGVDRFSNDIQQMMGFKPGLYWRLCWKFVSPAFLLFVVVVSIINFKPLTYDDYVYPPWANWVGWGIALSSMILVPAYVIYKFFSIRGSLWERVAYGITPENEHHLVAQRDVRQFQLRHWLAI
T2 sequence (P23977 whole entry): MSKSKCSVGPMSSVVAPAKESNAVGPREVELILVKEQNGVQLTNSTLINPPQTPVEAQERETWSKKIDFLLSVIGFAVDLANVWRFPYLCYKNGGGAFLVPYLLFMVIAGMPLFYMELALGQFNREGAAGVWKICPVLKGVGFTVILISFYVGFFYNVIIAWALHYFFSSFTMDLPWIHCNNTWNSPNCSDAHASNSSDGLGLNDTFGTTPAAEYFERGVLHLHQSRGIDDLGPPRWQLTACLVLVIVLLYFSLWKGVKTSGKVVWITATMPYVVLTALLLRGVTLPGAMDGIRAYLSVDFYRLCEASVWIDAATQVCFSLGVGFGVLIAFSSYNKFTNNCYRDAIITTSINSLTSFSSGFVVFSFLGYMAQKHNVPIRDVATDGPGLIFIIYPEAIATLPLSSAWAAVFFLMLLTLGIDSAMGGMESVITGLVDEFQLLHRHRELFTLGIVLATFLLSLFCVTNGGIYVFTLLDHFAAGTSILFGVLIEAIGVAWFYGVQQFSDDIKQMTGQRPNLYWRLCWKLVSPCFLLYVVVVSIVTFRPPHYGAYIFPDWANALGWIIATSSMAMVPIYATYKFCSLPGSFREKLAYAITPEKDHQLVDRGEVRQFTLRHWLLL
T1 sequence (P31652 whole entry): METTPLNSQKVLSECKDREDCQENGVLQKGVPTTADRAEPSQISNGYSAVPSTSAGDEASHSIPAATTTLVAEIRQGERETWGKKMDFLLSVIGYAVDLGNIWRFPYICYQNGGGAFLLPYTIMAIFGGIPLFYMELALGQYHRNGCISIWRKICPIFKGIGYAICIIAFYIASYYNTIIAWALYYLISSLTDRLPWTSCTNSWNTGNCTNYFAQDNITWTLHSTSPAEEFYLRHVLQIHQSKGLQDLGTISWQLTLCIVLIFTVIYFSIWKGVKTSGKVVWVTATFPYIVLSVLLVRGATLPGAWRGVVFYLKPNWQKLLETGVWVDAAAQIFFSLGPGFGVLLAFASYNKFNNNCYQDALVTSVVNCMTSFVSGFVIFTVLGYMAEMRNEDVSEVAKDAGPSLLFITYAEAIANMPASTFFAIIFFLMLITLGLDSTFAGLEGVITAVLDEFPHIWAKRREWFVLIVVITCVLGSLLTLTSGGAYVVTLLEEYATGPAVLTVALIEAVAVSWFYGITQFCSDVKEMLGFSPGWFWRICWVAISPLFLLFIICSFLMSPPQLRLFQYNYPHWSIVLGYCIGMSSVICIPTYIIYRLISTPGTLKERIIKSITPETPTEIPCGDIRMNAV

In the case of `O=c1oc2cc(OC3CC4CCC(C3)N4)ccc2cc1-c1ccco1` [1st Compound of Method A, exo-7-[(1S,3S,5R)-(8-Aza-bicyclo[3.2.1]oct-3-yl)oxy]-3-furan-2-yl-chromen-2-one hydrochloric acid salt], the IC50 in assay [1] came to 7.7 nM; in assay [2], 34 nM; in assay [3] it was 4.3 nM.
For `O=c1oc2cc(OC3CC4CCC(C3)N4)ccc2cc1-c1ccoc1` [2nd Compound of Method A, exo-7-[(1S,3S,5R)-(8-Aza-bicyclo[3.2.1]oct-3-yl)oxy]-3-furan-3-yl-chromen-2-one hydrochloric acid salt], in that order: 10 nM, 9.9 nM and 0.48 nM.
Regarding `O=c1oc2cc(OC3CC4CCC(C3)N4)ccc2cc1-c1cc2ccccc2o1` [3rd Compound of Method A, exo-7-[(1S,3S,5R)-(8-Aza-bicyclo[3.2.1]oct-3-yl)oxy]-3-benzofuran-2-yl-chromen-2-one hydrochloric acid salt], the IC50 in assay [1] was found to be 9.1 nM; in assay [2], 700 nM; in assay [3], 840 nM.

These data come from patent US8263617B2, “Chromen-2-one derivatives and their use as monoamine neurotransmitter re-uptake inhibitors” (Neurosearch A/S, priority 2006, dated 2012).
